Data on 12 compounds can be found in patent US20100035831A1, “ANTI-WRINKLE AGENT AND ADAM INHIBITOR” (SHISEIDO COMPANY, LTD., priority 2007, published 2010).

The subject of test [1] is ADAM. Nature of the test: Inhibition of PMA-induced TNF-α release from U937 cells as index of ADAM inhibition (ELISA). The class given is cell-based, human. Conditions: tested substance 30 μg/mL, 30 min pretreatment, 10 nM PMA for 6 hours. As for the experimental part:
For ADAM inhibiting effect, the TNF-α which is cut out to be released from the membrane of the U937 cell derived from the human lymphoma through the action of the ADAM was used as an index and the inhibiting effect on the TNF-α release was assessed. A new ADAM inhibitor was explored by screening different compounds according to the present method.
The U937 cells derived from the human lymphoma were seeded to the 48-well plate adjusting the number of the cells to 1×10^5 cells/0.25 ml and cultured at 37° C. overnight. The medium which contained 30 μg/ml of alkyl glucoside was added and incubated at 37° C. for 30 min. to be pretreated. 10 nM PMA (phorbol ester:12-O-tetradecanoylphorbol-acetate; Sigma P8139) was then added and cultured at 37° C. for 6 hours. After completion of the treatment, the supernatant of the culture was collected, centrifuged and the cell-free supernatant was cryopreserved at −20° C. The assay of the released hTNF-α was performed using the hTNF-α Duo-Set ELISA kit from R & D Ltd. Each supernatant of the culture was diluted 5 folds with the medium, then 100 μl each was added to the 96-well plate and measured according to the protocol of R & D Ltd. The absorbance at 450-570 nm of each well was measured by the measurement kit and concentrations of the samples were obtained from the standard curve. The inhibition rates were calculated according to the following equation wherein A0 is the absorbance of 0% inhibiting control (the medium containing only PMA), A100 is the absorbance of 100% inhibiting control (only the medium) and AS is the absorbance of the sample.
The inhibition rate (%)=(A0−AS)/(A0−A100)×100

Test [2] has as its system barrier-destructed wrinkle mouse model. Description: Wrinkle score by visual judgement in the tape-stripping barrier-destructed wrinkle mouse model. Type of test: in vivo, hairless mice (HR-1). How it is done: Then, the wrinkle-ameliorating effects of dodecyl β-D-glucoside (GC12), tetradecyl β-D-glucoside (GC14), and hexadecyl β-D-glucoside (GC16) amongst the new ADAM-inhibiting compounds were examined using a barrier-destructed wrinkle mouse model.
(§1) The tape stripping was performed on the left back of the hairless mice (HR-1, 6 week old male, Hosino experimental animals) 3 times a week for 4 consecutive weeks so that the trans epithelial water loss (measured using a measuring device of water loss MEECO; Meeco Ltd, USA) was 4-8 mg/cm^2/h. Every time immediately after procedures of tape stripping, 100 μl each of the solutions of dodecyl β-D-glucoside, tetradecyl β-D-glucoside, and hexadecyl β-D-glucoside dissolved in the 50% ethanol aqueous solution so that they were 1% were applied on the left back of the mice, and as the negative control, a 50% ethanol aqueous solution (vehicle) were similarly applied. Number n was set as 6 to 7 for each group.
States of the wrinkle development after 4 weeks were scored by visual judgement. The assessment criteria of the wrinkle development state was set as “no wrinkle; 0”, “thin wrinkle; 1”, “clear wrinkle; 2”, “deep wrinkle; 3”, and the states were scored to the 0.5.
(§2) Using the similar method, the wrinkle-inhibiting effect of octadecyl β-D-glucoside (GC18) was also examined.

For test [3], the system named is fine wrinkles around the human eyes. Description: Visual judgement of fine wrinkles under the human eye, half face double blind test. Type of test: in vivo. Conditions: 0.44% in 30% ethanol. As for the experimental part: (§3) An aqueous solution of 0.44% dodecyl β-D-glucoside/30% ethanol was successively applied to 16 adult male humans in the 30-40th's (the average age of 42.2) for two months. The dosage was set as 30 μl per application. The solution of 0.44% dodecyl β-D-glucoside/30% ethanol was applied to the lateral angle of and under one eye and 30% ethanol aqueous solution as the vehicle was applied to those of the other eye two times a day.
(§4) To examine the state of the skin around the eyes before the application and after the application, it was acclimated in a steady temperature and humidity room (23.5° C., 45% humidity) after washing the face and then photo taking of the appearance around the eyes (Nikon digital single lens reflex camera D-100) and the water content measurement of the horny layer (Corneometer, Courage+Khazaka electronic GmbH, Germany) were performed before starting the test and after starting the successive application for two months.
Then, the visual appreciation judgement was performed by three judging persons.

The test system of test [4] is barrier-destructed wrinkle mouse model. Description: Relative transepidermal water loss (TEWL) in the barrier-destructed wrinkle mouse model. The class given is in vivo, hairless mice (HR-1). The conditions noted are these: for Relative TEWL (%), left (treated) side based on right (untreated) side: 1% in 50% ethanol, 4 weeks after starting, vehicle group 186% (FIG. 3). As for the experimental part: as §1
Further, the trans epithelial water loss (TEWL) at the backs of the mice before starting the test and at 4 weeks after starting was also examined. The TEWL values at the left backs on which dodecyl β-D-glucoside, tetradecyl β-D-glucoside, and hexadecyl β-D-glucoside or 50% ethanol aqueous solution (vehicle) were applied after tape stripping procedure as well as the values at the right backs on which nothing was applied were measured by the Vapometer (Technologies Ltd, Kuopio, Finland) two times, respectively. The ratio of the TEWL value for the left side based on the TEWL value of the right side for each individual (the relative TEWL (%)) was obtained and the average value for each group was calculated.
as §2

The nature of test [5]: Water content of the horny (corneal) layer around the human eyes (Corneometer). The conditions noted are these: 0.44% in 30% ethanol, two months; vehicle group reduced to 95% of the value before start (FIG. 6). The class given is in vivo. How it is done:
as §3, §4
The rate of the water content value of the corneal layer of the eye, when the value is 100, after successive application for two months based on the water content value of the horny layer of each subject before starting the test (relative water content of the horny layer (%)) was obtained to calculate the average value for each group.

The mark [6] stands for this setting: 1% in 50% ethanol, 100 μl on left back after each tape stripping, 3 times a week, after 4 weeks, vehicle group 1.24 (FIG. 2).
The mark [7] stands for this setting: 30 μl two times a day for two months, 16 adult males, versus vehicle-applied side.

As to `CCCCCCCCCCO[C@@H]1O[C@H](CO)[C@@H](O)[C@H](O)[C@H]1O` [Decyl β-D-glucoside], the “Inhibition rate (%) of TNF-α release” value in test [1] came out at 56%.
`CCCCCCCCCCCCO[C@H]1O[C@H](CO)[C@@H](O)[C@H](O)[C@H]1O` [Dodecyl α-D-glucoside]: in test [1], the “Inhibition rate (%) of TNF-α release” value came out at 91%.
On to `CCCCCCCCCCCCO[C@@H]1O[C@H](CO)[C@@H](O)[C@H](O)[C@H]1O` [Dodecyl β-D-glucoside], for which the “Inhibition rate (%) of TNF-α release” value in test [1] worked out at 88%. In addition, the “Average wrinkle score by visual judgement (0 no wrinkle to 3 deep wrinkle)” value in test [2] (setting [6]) was 0.58. Besides, in test [3] (setting [7]), the “Number of subjects Ameliorated” value is recorded as 10, the “Number of subjects Deteriorated” value worked out at 2 and the “Number of subjects Unchanged” value is 4. The “Effect on fine wrinkles under the eye (in words)” value in test [3] (two months, human) is listed as “significantly ameliorates the fine wrinkles under the eye”. For the same compound, the “Relative TEWL (%), left (treated) side based on right (untreated) side” value (“Relative TEWL (%), left” for short) in test [4] was 141%. For the same compound, in test [5], the “Relative water content of the horny layer (in words)” value was “reduction of the water content of the corneal layer was controlled”.
On to `OC[C@H]1O[C@@H](Oc2ccccc2)[C@H](O)[C@@H](O)[C@@H]1O` [Glucoside compound (A), reference compound], for which the “Inhibition rate (%) of TNF-α release” value in test [1] turned out to be 9.5%.
Regarding `OC[C@H]1O[C@@H](OCc2ccccc2)[C@H](O)[C@@H](O)[C@@H]1O` [Glucoside compound (B), reference compound], the “Inhibition rate (%) of TNF-α release” value in test [1] is 3.4%.
For the compound `OC[C@H]1O[C@@H](Oc2cccc3cccnc23)[C@H](O)[C@@H](O)[C@@H]1O` [Glucoside compound (C), reference compound], the “Inhibition rate (%) of TNF-α release” value in test [1] was 4.8%.
Take `OC[C@H]1O[C@@H](Oc2c[nH]c3ccccc23)[C@H](O)[C@@H](O)[C@@H]1O` [Glucoside compound (D), reference compound]: the “Inhibition rate (%) of TNF-α release” value in test [1] is −0.5%.
In the case of `OC[C@H]1O[C@@H](OCCc2ccccc2)[C@H](O)[C@@H](O)[C@@H]1O` [Glucoside compound (E), reference compound], the “Inhibition rate (%) of TNF-α release” value in test [1] is given as −51.83%.
Turning to `CCCCCCCCCCCCCCCCO[C@@H]1O[C@H](CO)[C@@H](O)[C@H](O)[C@H]1O` [Hexadecyl β-D-glucoside], the “Inhibition rate (%) of TNF-α release” value in test [1] was found to be 76%. The “Average wrinkle score by visual judgement (0 no wrinkle to 3 deep wrinkle)” value in test [2] (setting [6]) is on record as 0.89. In test [4], the “Relative TEWL (%), left” value is 164%.
As for `CCCCCCCCCCCCCCCCCCO[C@@H]1O[C@H](CO)[C@@H](O)[C@H](O)[C@H]1O` [Octadecyl β-D-glucoside], the “Inhibition rate (%) of TNF-α release” value in test [1] was found to be 62%. The “Average wrinkle score by visual judgement (0 no wrinkle to 3 deep wrinkle)” value in test [2] (similar method, vehicle group 1.55 (FIG. 4)) stood at 0.54. In addition, the “Relative TEWL (%)” value in test [4] (similar method, vehicle group 208% (FIG. 5)) was found to be 124%.
Regarding `CCCCCCCCCCCCCCO[C@@H]1O[C@H](CO)[C@@H](O)[C@H](O)[C@H]1O` [Tetradecyl β-D-glucoside], in test [1], the “Inhibition rate (%) of TNF-α release” value worked out at 109%. In addition, in test [2] (setting [6]), the “Average wrinkle score by visual judgement (0 no wrinkle to 3 deep wrinkle)” value is given as 0.63. For the same compound, the “Relative TEWL (%), left” value in test [4] is 130%.
Consider `CCCCCCCCCCCO[C@@H]1O[C@H](CO)[C@@H](O)[C@H](O)[C@H]1O` [Undecyl β-D-glucoside], for which the “Inhibition rate (%) of TNF-α release” value in test [1] stood at 98%.
